Results published in patent US20060194259A1, “Method for isolating an allosteric effector of a receptor” (priority 2002, published 2006).

Experiments:
[1] = target: T1, receptor EGFP-NK2R (Homo sapiens, UniProt P21452); test: Reversion of the binding of NKA-Bo to EGFP-NK2R by fluorescence energy transfer; settings: read-out: % bond reversion (50 μM)
T1 sequence (P21452 1-398): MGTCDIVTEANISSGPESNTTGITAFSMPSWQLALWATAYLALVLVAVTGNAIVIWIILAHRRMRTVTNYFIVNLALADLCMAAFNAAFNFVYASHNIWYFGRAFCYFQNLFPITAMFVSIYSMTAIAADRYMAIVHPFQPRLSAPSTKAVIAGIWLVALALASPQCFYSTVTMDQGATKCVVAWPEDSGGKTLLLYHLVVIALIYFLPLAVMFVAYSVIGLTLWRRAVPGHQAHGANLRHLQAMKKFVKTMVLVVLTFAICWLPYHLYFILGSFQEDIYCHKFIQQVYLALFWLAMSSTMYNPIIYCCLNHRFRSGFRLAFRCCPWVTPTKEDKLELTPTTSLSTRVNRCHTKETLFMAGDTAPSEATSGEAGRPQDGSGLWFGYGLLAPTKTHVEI
Description: The amplitude of each relaxation is then given by the adjustment of the experimental traces.

[2] = tested on: cells not expressing the EGFP-NK2R receptor; test: Calcium response on cells not expressing the receptor; type: cell-based; set-up: key: ns: not significant; ?: uniterpretable
[3] = target: T1, receptor EGFP-NK2R; test: cAMP production caused by NKA in HEK 293 cells expressing EGFP-NK2R; type: cell-based
Description: (§1) 30 mm 6-well cell-culture dishes are treated with collagen then seeded with 50,000 cells expressing the receptor EGFP-NK2R. […] The quantity of cAMP produced (expressed in pmoles/well) is determined according to a radioimmunological process described in Gicquiaux et al. (2002).

[4] = target: T1, receptor EGFP-NK2R; test: Calcium response caused by NKA/NKA-Bo in HEK 293 cells expressing EGFP-NK2R (indo-1); type: cell-based; settings: for time necessary to return to 50% of the maximum calcium response: 5 nM NKA, 91 seconds in the absence of 805
Description: The calcium responses caused by the agonist NKA-Bo on cells expressing the receptor EGFP-NK2R are recorded after charging the cells with the calcium-sensitive fluorescent probe: indo-1, according to the protocol described in Vollmer et al. (1999). The cells are put into suspension at a rate of 500,000 cells/ml in Hepes buffer and arranged in a spectrofluorimeter cuvette. The excitation wavelength is fixed at 338 nm and the emission is recorded at 400 and 470 nm. The responses traced are the ratios of the signals 400/470.

[5] = target: T2, receptor EGFP-NK2R (UniProt P16610); test: cAMP production caused by NKA in HEK 293 cells expressing EGFP-NK2R; type: cell-based; set-up: 805 at 10 or 50 μM; NKA alone; fused on or other part: EGFP fused to the receptor; settings: read-out: inhibition constant KI of the maximum response of cAMP induced by the NKA; FIG. 9C
T2 sequence (P16610 1-390): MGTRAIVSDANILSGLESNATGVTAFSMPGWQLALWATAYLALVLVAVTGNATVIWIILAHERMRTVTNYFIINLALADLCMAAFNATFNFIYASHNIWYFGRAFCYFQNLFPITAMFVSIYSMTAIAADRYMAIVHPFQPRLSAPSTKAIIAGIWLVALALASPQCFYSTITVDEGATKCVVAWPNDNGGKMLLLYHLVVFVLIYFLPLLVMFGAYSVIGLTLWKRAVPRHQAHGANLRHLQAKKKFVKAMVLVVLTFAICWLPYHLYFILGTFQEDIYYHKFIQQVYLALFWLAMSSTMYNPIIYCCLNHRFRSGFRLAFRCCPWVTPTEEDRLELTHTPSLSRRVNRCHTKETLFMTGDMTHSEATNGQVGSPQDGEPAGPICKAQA
Description: as §1

With `N#CCN(Cc1ccccc1)Cc1ccc2ccccc2c1` [compound 805, [benzyl(2-naphthylmethyl)amino]acetonitrile] the inhibition at 50 µM [1] was 9%, the “Ca Rep.: ability to evoke a calcium response on cells not expressing the EGFP-NK2R receptor” value ([2]; Table 1) was “ns” and the “Ca Rep.” value ([2]; Table 2) was “ns”. The “Rmax, maximum cAMP response to NKA relative to control” value ([3]; [805]=10 μM) was 0.7, the “Rmax, maximum cAMP response to NKA relative to control” value ([3]; [805]=50 μM) was 0.3 and the “time necessary to return to 50% of the maximum calcium response” value ([4]; 805 10 μM) was 105 s. For the same molecule, the “effect on the calcium response caused by NKA” value ([4]; 805 50 μM with 1, 5 and 1000 nM NKA) was “increases the duration of the calcium response”, the “time necessary to return to 50% of the maximum calcium response” value ([4]; 805 50 μM) was 115 s and the Ki [5] was about 6 µM.
